Columns and labels:
GluR3 L507Y = target: T1, GluR3 L507Y (Rattus norvegicus, UniProt P19492, L507Y); assay: Responses to quisqualate and AMPA and effect of cyclothiazide (outside-out patch); type: cell-based
T1 construct: expressed in transfected cells; host or cells: HEK293, transient, pCDNA3

[1] = test system: T504A, E511K or their combined exchange; type: cell-based, rat
R3(R6S1) = assay: Effect of cyclothiazide on the peak response to glutamate (outside-out patch); type: cell-based, rat; conditions: 100 µM cyclothiazide added to the agonist solution, n=10
R6TM1R3 = target: T2, R6TM1R3 (Rattus norvegicus, UniProt P19492+P42260, A582S/A630S/C576V/C595R/D598Q/D600P/D669E/D672E/E603P/E625D/E665V/E681A/F612L/G615S/H593E/I581V/I639V/INS589HLED/INS599P/K629R/K679E/L568V/L569F/L572I/L608I/L609F/L619F/L626I/M627S/N596D/N605E/P592E/S624C/T607G/T633G/V580L/V601D/V602P/V616L/Y566C/Y590N); assay: as above; type: cell-based; conditions: 100 µM cyclothiazide added to the agonist solution, n=13
T2 construct: the entire extracellular N-terminal region of GluR3flip was substituted by the corresponding region of GluR6; expressed in transfected cells; host or cells: HEK293, transient

R6TM1R3(Y521L) = target: T3, R6TM1R3(Y521L) (Rattus norvegicus, UniProt P19492+P42260, A582S/A630S/C576V/C595R/D598Q/D600P/D669E/D672E/E603P/E625D/E665V/E681A/F612L/G615S/H593E/I581V/I639V/INS589HLED/INS599P/K629R/K679E/L568V/L569F/L572I/L608I/L609F/L619F/L626I/M627S/N596D/N605E/P592E/S624C/T607G/T633G/V580L/V601D/V602P/V616L/Y521L/Y566C/Y590N); assay: Responses to kainate and effect of cyclothiazide (outside-out patch); type: cell-based; conditions: glutamate evoked current in the presence of 100 µM cyclothiazide
T3 construct: the entire extracellular N-terminal region of GluR3flip was substituted by the corresponding region of GluR6; expressed in transfected cells; host or cells: HEK293, transient

GluR3flip = target: T4, GluR3flip (Rattus norvegicus, UniProt P19492); assay: Block of desensitization by cyclothiazide added to the agonist solution (outside-out patch); type: cell-based; conditions: cyclothiazide 100µM added to the agonist solution (10 mM glutamate)
T4 construct: expressed in transfected cells; host or cells: HEK293 (ATCC CRL 1573), transient, pcDNA3

GluR3-S1 chimeras = assay: Responses to saturating kainate concentrations compared with glutamate (outside-out patch); type: cell-based, rat; conditions: saturating kainate concentrations (5-10 mM)

T1 sequence (P19492 23-888 isoform P19492-2 L507Y limits assumed): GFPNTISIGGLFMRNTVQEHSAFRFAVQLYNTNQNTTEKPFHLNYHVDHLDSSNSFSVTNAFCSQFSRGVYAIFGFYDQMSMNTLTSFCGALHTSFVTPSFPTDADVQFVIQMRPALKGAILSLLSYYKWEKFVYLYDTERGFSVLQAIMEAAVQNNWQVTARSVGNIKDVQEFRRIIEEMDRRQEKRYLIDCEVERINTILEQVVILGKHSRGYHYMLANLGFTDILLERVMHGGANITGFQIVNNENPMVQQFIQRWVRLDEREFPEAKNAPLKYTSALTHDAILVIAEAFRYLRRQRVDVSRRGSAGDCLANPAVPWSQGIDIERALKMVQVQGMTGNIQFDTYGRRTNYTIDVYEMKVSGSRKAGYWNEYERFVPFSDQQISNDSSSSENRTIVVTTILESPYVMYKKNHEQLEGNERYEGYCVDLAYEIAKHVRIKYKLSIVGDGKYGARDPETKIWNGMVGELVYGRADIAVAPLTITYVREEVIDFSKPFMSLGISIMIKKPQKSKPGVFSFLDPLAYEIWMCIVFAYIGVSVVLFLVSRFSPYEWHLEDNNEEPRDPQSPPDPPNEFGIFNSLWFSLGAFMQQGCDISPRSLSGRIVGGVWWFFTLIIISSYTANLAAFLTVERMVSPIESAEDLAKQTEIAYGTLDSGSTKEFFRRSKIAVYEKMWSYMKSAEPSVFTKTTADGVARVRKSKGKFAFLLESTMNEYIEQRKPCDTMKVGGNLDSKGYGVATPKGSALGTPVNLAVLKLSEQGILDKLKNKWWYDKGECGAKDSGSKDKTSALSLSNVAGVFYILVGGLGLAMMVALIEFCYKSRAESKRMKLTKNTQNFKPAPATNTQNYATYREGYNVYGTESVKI
T3 sequence (P42260+P19492 fused with the stated changes): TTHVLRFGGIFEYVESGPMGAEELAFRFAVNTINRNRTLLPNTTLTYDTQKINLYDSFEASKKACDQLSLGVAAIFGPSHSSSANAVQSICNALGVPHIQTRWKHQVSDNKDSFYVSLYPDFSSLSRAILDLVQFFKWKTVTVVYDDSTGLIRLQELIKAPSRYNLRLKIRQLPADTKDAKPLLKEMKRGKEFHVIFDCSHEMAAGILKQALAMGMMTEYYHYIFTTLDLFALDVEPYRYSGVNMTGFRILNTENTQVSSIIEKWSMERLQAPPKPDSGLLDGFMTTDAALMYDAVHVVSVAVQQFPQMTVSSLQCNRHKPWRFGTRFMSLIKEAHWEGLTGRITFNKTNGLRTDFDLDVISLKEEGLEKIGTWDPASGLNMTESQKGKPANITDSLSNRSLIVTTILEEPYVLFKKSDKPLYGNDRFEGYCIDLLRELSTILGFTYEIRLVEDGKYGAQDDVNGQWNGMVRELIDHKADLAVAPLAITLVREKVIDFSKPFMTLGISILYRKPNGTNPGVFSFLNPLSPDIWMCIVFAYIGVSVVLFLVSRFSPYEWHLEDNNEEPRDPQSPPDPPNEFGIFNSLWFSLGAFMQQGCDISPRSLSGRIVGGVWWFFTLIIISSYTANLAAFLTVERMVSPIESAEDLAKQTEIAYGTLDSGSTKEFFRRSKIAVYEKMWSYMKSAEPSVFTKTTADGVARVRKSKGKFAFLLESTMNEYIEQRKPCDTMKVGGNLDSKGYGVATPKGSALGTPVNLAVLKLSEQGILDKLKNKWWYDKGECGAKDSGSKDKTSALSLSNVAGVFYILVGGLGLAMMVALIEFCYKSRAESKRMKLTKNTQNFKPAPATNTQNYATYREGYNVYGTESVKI
T4 sequence (P19492 23-888 isoform P19492-2 limits assumed): as the sequence (P19492 23-888 isoform P19492-2 L507Y limits assumed) above, with Y485L counted along it
T2 sequence (P42260+P19492 fused with the stated changes): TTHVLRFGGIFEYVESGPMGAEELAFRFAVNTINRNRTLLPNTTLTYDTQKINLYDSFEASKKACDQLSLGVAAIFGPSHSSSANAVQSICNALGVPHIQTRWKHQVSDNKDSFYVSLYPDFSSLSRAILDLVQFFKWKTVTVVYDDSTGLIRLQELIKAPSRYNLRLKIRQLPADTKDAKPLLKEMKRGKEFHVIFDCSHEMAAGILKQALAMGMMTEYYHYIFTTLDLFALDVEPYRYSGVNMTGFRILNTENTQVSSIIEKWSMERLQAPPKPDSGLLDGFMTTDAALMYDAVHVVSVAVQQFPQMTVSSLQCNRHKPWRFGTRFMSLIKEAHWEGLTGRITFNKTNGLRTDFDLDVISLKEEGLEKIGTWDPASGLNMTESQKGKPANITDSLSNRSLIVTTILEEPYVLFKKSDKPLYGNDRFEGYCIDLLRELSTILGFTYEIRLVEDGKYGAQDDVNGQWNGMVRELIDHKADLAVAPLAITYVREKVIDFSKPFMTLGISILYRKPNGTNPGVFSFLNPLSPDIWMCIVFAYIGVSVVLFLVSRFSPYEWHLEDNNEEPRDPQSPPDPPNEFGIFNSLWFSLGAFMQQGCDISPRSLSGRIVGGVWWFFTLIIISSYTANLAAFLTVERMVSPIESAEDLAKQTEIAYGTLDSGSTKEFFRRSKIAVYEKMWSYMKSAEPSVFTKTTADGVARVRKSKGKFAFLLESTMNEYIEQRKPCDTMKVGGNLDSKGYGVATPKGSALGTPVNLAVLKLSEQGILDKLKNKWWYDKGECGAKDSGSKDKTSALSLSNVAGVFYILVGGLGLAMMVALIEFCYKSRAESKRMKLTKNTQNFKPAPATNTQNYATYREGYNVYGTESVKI

## Cc1onc(O)c1CC(N)C(=O)O (racemic) [AMPA, (RS)-alpha-amino-3-hydroxy-5-methyl-4-isoxazoleepropionic acid]
GluR3 L507Y; agonist 1 mM
  P/S: 1.05±0.03
GluR3 L507Y; n=7
  efficacy of opening, ratio glutamate/agonist: 0.97±0.03

## NS(=O)(=O)c1cc2c(cc1Cl)NC(C1CC3C=CC1C3)NS2(=O)=O (stereo not drawn) [cyclothiazide]
[1]
  effect on desensitization (result in words): completely blocked
GluR3 L507Y; cyclothiazide (100 µM)
  reduction of peak response: 9.6±2.7%
R3(R6S1)
  inhibition of the peak response: 12±3%
R6TM1R3
  inhibition at 100 µM: 14 ± 4%
R6TM1R3(Y521L)
  effect on desensitization (result in words): Desensitization was blocked
GluR3flip
  P/S values: ~1

## C=C(C)[C@H]1CN[C@H](C(=O)O)[C@H]1CC(=O)O [kainate]
GluR3-S1 chimeras
  desensitization of responses (result in words): essentially non-desensitizing

From patent EP1121436B1, “NON-DESENSITIZING AMPA-RECEPTORS” (Max-Planck-Gesellschaft zur Förderung der Wissenschaften …, priority 1998, dated 2000)
